# Laboratory results as given in patent US8309718B2, “4-pyrazolyl-N-arylpyrimidin-2-amines and 4-pyrazolyl-N-heteroarylpyrimidin-2-amines as janus kinase inhibitors” (Incyte Corporation, priority 2007, dated 2012).
# Target: T1, human JAK2 (Homo sapiens, UniProt O60674)
# T1 construct: JAK2 (a.a. 828-1132); His tag (N); made in house; host or cells: insect cells (baculovirus)
# Test: In vitro JAK kinase assay (HTRF, phosphorylation of biotinylated peptide)
# Format: biochemical
# Settings: catalytic domain a.a. 828-1132, 30 μM ATP, 500 nM peptide, room temperature 1 hr; read-out: JAK-2 IC50
# Method in brief: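 His-tagged human JAK2 catalytic domain (a.a. 828-1132), baculovirus/insect-cell expressed; phosphorylation of 500 nM biotinylated peptide at 30 μM ATP in 50 mM Tris pH 7.8, 100 mM NaCl, 5 mM DTT, 0.01% BSA. 1 h at room temperature, EDTA stop, HTRF read (Eu-Py20/SA-APC); IC50.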
# T1 sequence (O60674 828-1132): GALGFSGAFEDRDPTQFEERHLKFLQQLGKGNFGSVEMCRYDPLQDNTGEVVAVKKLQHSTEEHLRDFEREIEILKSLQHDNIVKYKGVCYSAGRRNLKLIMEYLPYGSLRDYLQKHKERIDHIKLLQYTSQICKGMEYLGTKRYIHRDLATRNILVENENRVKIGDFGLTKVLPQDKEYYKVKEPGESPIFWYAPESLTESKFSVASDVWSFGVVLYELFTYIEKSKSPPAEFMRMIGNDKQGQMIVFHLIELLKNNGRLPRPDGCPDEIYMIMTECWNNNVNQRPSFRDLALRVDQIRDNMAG
row,SMILES,IC50 [nM]
1,"COc1cnc(Nc2cccc(-c3cnco3)c2)nc1-c1cnn(C(CC#N)C2CCCC2)c1 (racemic) [Example 132, 3-cyclopentyl-3-(4-(5-methoxy-2-(3-(oxazol-5-yl)phenylamino)pyrimidin-4-yl)-1H-pyrazol-1-yl)propanenitrile]",< 100
2,"COc1cnc(Nc2cccc(-c3ccnc(C)n3)c2)nc1-c1cnn(C(CC#N)C2CCCC2)c1 (racemic) [Example 134, 3-cyclopentyl-3-(4-(5-methoxy-2-(3-(2-methylpyrimidin-4-yl)phenylamino)pyrimidin-4-yl)-1H-pyrazol-1-yl)propanenitrile]",< 100
3,"COc1cnc(Nc2ccc(N3CCCCC3=O)cc2)nc1-c1cnn(C(CC#N)C2CCCC2)c1 (racemic) [Example 135, 3-cyclopentyl-3-(4-(5-methoxy-2-(4-(2-oxopiperidin-1-yl)phenylamino)pyrimidin-4-yl)-1H-pyrazol-1-yl)propanenitrile]",< 100
4,"CN1CCN(C(=O)c2cccc(Nc3nccc(-c4cnn(C(CC#N)C5CCCC5)c4)n3)c2)CC1 (racemic) [Example 137, 3-cyclopentyl-3-(4-(2-(3-(4-methylpiperazine-1-carbonyl)phenylamino)pyrimidin-4-yl)-1H-pyrazol-1-yl)propanenitrile]",< 100
5,"N#CCC(C1CCCC1)n1cc(-c2ccnc(Nc3cccc(C(=O)N4CCCC4)c3)n2)cn1 (racemic) [Example 139, 3-cyclopentyl-3-(4-(2-(3-(pyrrolidine-1-carbonyl)phenylamino)pyrimidin-4-yl)-1H-pyrazol-1-yl)propanenitrile]",< 100
6,"N#CCC(C1CCCC1)n1cc(-c2ccnc(Nc3cccc(C(=O)N4CCNC(=O)C4)c3)n2)cn1 (racemic) [Example 140, 3-cyclopentyl-3-(4-(2-(3-(3-oxopiperazine-1-carbonyl)phenylamino)pyrimidin-4-yl)-1H-pyrazol-1-yl)propanenitrile]",< 100
7,"N#CCC(C1CCCC1)n1cc(-c2ccnc(Nc3cccc(C(=O)N4CCC4)c3)n2)cn1 (racemic) [Example 142, 3-(4-(2-(3-(azetidine-1-carbonyl)phenylamino)pyrimidin-4-yl)-1H-pyrazol-1-yl)-3-cyclopentylpropanenitrile]",< 100
8,"N#CCC(C1CCCC1)n1cc(-c2ccnc(Nc3cccc(C(=O)NCc4cccnc4)c3)n2)cn1 (racemic) [Example 146, 3-(4-(1-(2-cyano-1-cyclopentylethyl)-1H-pyrazol-4-yl)pyrimidin-2-ylamino)-N-(pyridin-3-ylmethyl)benzamide]",< 100
9,"N#CCC(C1CCCC1)n1cc(-c2ccnc(Nc3cccc(C(=O)N4CCOCC4)c3)n2)cn1 (racemic) [Example 147, 3-cyclopentyl-3-(4-(2-(3-(morpholine-4-carbonyl)phenylamino)pyrimidin-4-yl)-1H-pyrazol-1-yl)propanenitrile]",< 100
10,"N#CCC(C1CCCC1)n1cc(-c2ccnc(Nc3cccc(C(=O)N4CCC(O)(c5ccccc5)CC4)c3)n2)cn1 (racemic) [Example 150, 3-cyclopentyl-3-(4-(2-(3-(4-hydroxy-4-phenylpiperidine-1-carbonyl)phenylamino)pyrimidin-4-yl)-1H-pyrazol-1-yl)propanenitrile]",< 100
11,"N#CCC(C1CCCC1)n1cc(-c2ccnc(Nc3cccc(C(=O)NCC4CCOCC4)c3)n2)cn1 (racemic) [Example 153, 3-(4-(1-(2-cyano-1-cyclopentylethyl)-1H-pyrazol-4-yl)pyrimidin-2-ylamino)-N-((tetrahydro-2H-pyran-4-yl)methyl)benzamide]",< 100
12,"CN1CCC(NC(=O)c2cccc(Nc3nccc(-c4cnn(C(CC#N)C5CCCC5)c4)n3)c2)CC1 (racemic) [Example 154, 3-(4-(1-(2-cyano-1-cyclopentylethyl)-1H-pyrazol-4-yl)pyrimidin-2-ylamino)-N-(1-methylpiperidin-4-yl)benzamide]",< 100
13,"N#CCC(C1CCCC1)n1cc(-c2ccnc(Nc3cccc(C(=O)NCCc4cccnc4)c3)n2)cn1 (racemic) [Example 161, 3-(4-(1-(2-cyano-1-cyclopentylethyl)-1H-pyrazol-4-yl)pyrimidin-2-ylamino)-N-(2-(pyridin-3-yl)ethyl)benzamide]",< 100
14,"COc1ccccc1CNC(=O)c1cccc(Nc2nccc(-c3cnn(C(CC#N)C4CCCC4)c3)n2)c1 (racemic) [Example 163, 3-(4-(1-(2-cyano-1-cyclopentylethyl)-1H-pyrazol-4-yl)pyrimidin-2-ylamino)-N-(2-methoxybenzyl)benzamide]",< 100
15,"N#CCC(C1CCCC1)n1cc(-c2ccnc(Nc3cccc(C(=O)NC4(CO)CCCC4)c3)n2)cn1 (racemic) [Example 165, 3-(4-(1-(2-cyano-1-cyclopentylethyl)-1H-pyrazol-4-yl)pyrimidin-2-ylamino)-N-(1-(hydroxymethyl)cyclopentyl)benzamide]",< 100
16,"N#CCC(C1CCCC1)n1cc(-c2ccnc(Nc3cccc(C(=O)N4CCN(c5ccc(C#N)cc5)CC4)c3)n2)cn1 (racemic) [Example 166, 4-(4-(3-(4-(1-(2-cyano-1-cyclopentylethyl)-1H-pyrazol-4-yl)pyrimidin-2-ylamino)benzoyl)piperazin-1-yl)benzonitrile]",< 100
17,"N#CCC(C1CCCC1)n1cc(-c2ccnc(Nc3cccc(C(=O)N4CCN(c5ccccc5)CC4)c3)n2)cn1 (racemic) [Example 168, 3-cyclopentyl-3-(4-(2-(3-(4-phenylpiperazine-1-carbonyl)phenylamino)pyrimidin-4-yl)-1H-pyrazol-1-yl)propanenitrile]",< 100
18,"N#CCC(C1CCC1)n1cc(-c2ccnc(Nc3ccc(N4CCOCC4)cc3)n2)cn1 (racemic) [Example 171, 3-cyclobutyl-3-(4-(2-(4-morpholinophenylamino)pyrimidin-4-yl)-1H-pyrazol-1-yl)propanenitrile]",< 100

# Results, then the compound that gave them:
row,IC50 [nM],SMILES
1,< 100,"COc1cnc(Nc2ccc(-c3cnco3)cc2)nc1-c1cnn(C(CC#N)C2CCCC2)c1 (racemic) [Example 131, 3-cyclopentyl-3-(4-(5-methoxy-2-(4-(oxazol-5-yl)phenylamino)pyrimidin-4-yl)-1H-pyrazol-1-yl)propanenitrile]"
2,< 100,"COc1cnc(Nc2ccc(N3CCOCC3=O)cc2)nc1-c1cnn(C(CC#N)C2CCCC2)c1 (racemic) [Example 133, 3-cyclopentyl-3-(4-(5-methoxy-2-(4-(3-oxomorpholino)phenylamino)pyrimidin-4-yl)-1H-pyrazol-1-yl)propanenitrile]"
3,< 100,"COc1cnc(Nc2ccc(N3CCOC3=O)cc2)nc1-c1cnn(C(CC#N)C2CCCC2)c1 (racemic) [Example 136, 3-cyclopentyl-3-(4-(5-methoxy-2-(4-(2-oxooxazolidin-3-yl)phenylamino)pyrimidin-4-yl)-1H-pyrazol-1-yl)propanenitrile]"
4,< 100,"N#CCC(C1CCCC1)n1cc(-c2ccnc(Nc3cccc(C(=O)N4CCN(CCO)CC4)c3)n2)cn1 (racemic) [Example 138, 3-cyclopentyl-3-(4-(2-(3-(4-(2-hydroxyethyl)piperazine-1-carbonyl)phenylamino)pyrimidin-4-yl)-1H-pyrazol-1-yl)propanenitrile]"
5,< 100,"CC(=O)N1CCN(C(=O)c2cccc(Nc3nccc(-c4cnn(C(CC#N)C5CCCC5)c4)n3)c2)CC1 (racemic) [Example 143, 3-(4-(2-(3-(4-acetylpiperazine-1-carbonyl)phenylamino)pyrimidin-4-yl)-1H-pyrazol-1-yl)-3-cyclopentylpropanenitrile]"
6,< 100,"N#CCC(C1CCCC1)n1cc(-c2ccnc(Nc3cccc(C(=O)N4CCC(Cc5cccnc5)CC4)c3)n2)cn1 (racemic) [Example 144, 3-cyclopentyl-3-(4-(2-(3-(4-(pyridin-3-ylmethyl)piperidine-1-carbonyl)phenylamino)pyrimidin-4-yl)-1H-pyrazol-1-yl)propanenitrile]"
7,< 100,"Cc1cc(CNC(=O)c2cccc(Nc3nccc(-c4cnn(C(CC#N)C5CCCC5)c4)n3)c2)no1 (racemic) [Example 148, 3-(4-(1-(2-cyano-1-cyclopentylethyl)-1H-pyrazol-4-yl)pyrimidin-2-ylamino)-N-((5-methylisoxazol-3-yl)methyl)benzamide]"
8,< 100,"N#CCC(C1CCCC1)n1cc(-c2ccnc(Nc3cccc(C(=O)N4CCC(O)(Cc5ccccc5)CC4)c3)n2)cn1 (racemic) [Example 151, 3-(4-(2-(3-(4-benzyl-4-hydroxypiperidine-1-carbonyl)phenylamino)pyrimidin-4-yl)-1H-pyrazol-1-yl)-3-cyclopentylpropanenitrile]"
9,< 100,"N#CCC(C1CCCC1)n1cc(-c2ccnc(Nc3cccc(C(=O)N4CCC(c5ccccc5)CC4)c3)n2)cn1 (racemic) [Example 155, 3-cyclopentyl-3-(4-(2-(3-(4-phenylpiperidine-1-carbonyl)phenylamino)pyrimidin-4-yl)-1H-pyrazol-1-yl)propanenitrile]"
10,< 100,"N#CCC(C1CCCC1)n1cc(-c2ccnc(Nc3cccc(C(=O)N4CCN(c5ncccn5)CC4)c3)n2)cn1 (racemic) [Example 160, 3-cyclopentyl-3-(4-(2-(3-(4-(pyrimidin-2-yl)piperazine-1-carbonyl)phenylamino)pyrimidin-4-yl)-1H-pyrazol-1-yl)propanenitrile]"
11,< 100,"N#CCC(C1CCCC1)n1cc(-c2ccnc(Nc3cccc(C(=O)N4CCC(Oc5ccccc5)CC4)c3)n2)cn1 (racemic) [Example 164, 3-cyclopentyl-3-(4-(2-(3-(4-phenoxypiperidine-1-carbonyl)phenylamino)pyrimidin-4-yl)-1H-pyrazol-1-yl)propanenitrile]"
12,< 100,"N#CCC(C1CCC1)n1cc(-c2ccnc(Nc3ccc(-n4cccn4)cc3)n2)cn1 (racemic) [Example 173, 3-(4-(2-(4-(1H-pyrazol-1-yl)phenylamino)pyrimidin-4-yl)-1H-pyrazol-1-yl)-3-cyclobutylpropanenitrile]"
